Test results published in article PMC5187537, “Antioxidant Activity of Oat Proteins Derived Peptides in Stressed Hepatic HepG2 Cells” (Antioxidants, 2016).
Peptide text beside a SMILES is read from it.

Columns and labels:
Format in all cases: cell-based, Human
[1] = system: HepG2 cells; assay: MTT cytotoxicity assay; conditions: 24 h
Method: (§1) Human hepatocellular carcinoma (HepG2) cells were purchased from the American Type Culture Collection (ATCC; Manassas, VA, USA). They were cultured at 37 °C in a humidified incubator with 5% CO2 and 95% air. Dulbecco’s Minimal Essential Media (DMEM) supplemented with 10% (v/v) Fetal Bovine Serum was used for the maintenance of cells. […] The MTT (3-(4,5-dimethylthiazol-2-yl)-2,5-diphenyltetrazolium bromide) assay, as described in an earlier research, was used for cytotoxicity and cytoprotective tests. […] Following another 24 h incubation, cells were washed twice with 200 µL of PBS. Ten µL of MTT solution (5 mg/mL in PBS) and 100 µL of media were added to each well. After 1 h, MTT solution was removed, and 50 µL DMSO were added. Absorbances were recorded at 570 nm with 630 nm background subtraction using a BioTek Epoch™ microplate reader (Fisher Scientific, Nepean, ON, Canada). Untreated cells were used as negative control (NC) and cells treated with only AAPH were used as positive control (PC).

[2] = system: catalase (CAT); assay: Catalase activity of lysates of AAPH-stressed cells; conditions: then AAPH 24 h; for Further increase of CAT activity compared to PC cells: 50 µM peptide 24 h
Method: Cells were seeded at 1 × 10^6 cells/plate in 60 mm tissue culture plates and allowed to grow for 24 h. In each plate, cells were washed twice with 4 mL of PBS (pH 7.2), and treated with 4 mL peptide samples (P1, P2, P6, P7) dissolved in culture media at 50 or 100 µM for 24 h. After removal of peptide solutions, cells were washed twice with 4 mL of PBS/plate and treated with 4 mL of […] dissolved in culture media and allowed to incubate for 24 h. Cells in each culture plate were harvested by incubation (5 min) with 0.5 mL of 0.25% trypsin, addition of 1 mL of culture media and centrifugation at 1000× g for 5 min. Cell pellets were washed with ice cold PBS (500 µL each) until no pink color was observed, re-suspended in ice cold PBS (300 µL) for the superoxide dismutase (SOD) assay, 500 µL for glutathione peroxidase (GPx) and catalase (CAT) assays. For total glutathione assay, 300 µL of 5% ice cold sulfosalicylic acid bubbled with 100% nitrogen was used for cell lysis. Cells were lysed by sonication on ice for 1 min using a probe-type sonicator (Vibra-Cell, Sonics and Materials Inc., Newtown, CT, USA) pulsing at 15 s on and 10 s off cycles. Following centrifugation of cell lysate at 13,000× g (4 °C), pellets containing cell debris were discarded, while supernatants were used for determination of glutathione content. Protein contents were determined using a modified Lowry assay. To measure the catalase activity, 1790 µL potassium phosphate buffer (50 mM, pH 7.0) was mixed with 200 µL cell lysate in a UV cuvette. Ten µL of H2O2 (30%) was added, and removal of H2O2 by catalase was followed at 240 nm using a Cary 50 Bio UV-Vis spectrophotometer with 18-cell changer (Varian Inc., Mississauga, ON, Canada). The activity was expressed as a percentage of control.

[3] = system: HepG2 cells; conditions: 50 or 100 µM peptide 24 h, then 20 mM AAPH 24 h, MTT
Method: as §1

Compound | Increase in cell viability (growth promotion) ([1]; peptide alone, no AAPH, MTT (Figure 2A)) [fold] | Concentration above which cytotoxic ([1]; tested at 20–500 µM, MTT) | Further increase of CAT activity compared to PC cells [2] [%] | Effect on CAT activity ([2]; 100 µM peptide 24 h) | Effect on HepG2 cell viability compared to NC ([1]; 50 and 100 µM peptide, MTT, p > 0.05) | Cytoprotective effect against AAPH-induced damage [3]
CC[C@H](C)[C@H](NC(=O)[C@H](Cc1ccc(O)cc1)NC(=O)[C@@H](NC(=O)[C@H](CC(C)C)NC(=O)CN)C(C)C)C(=O)N[C@@H](CC(C)C)C(=O)O [P2] (H-GLVYIL-OH; N-terminus and C-terminus assumed) | ~2.7 | above 450 µM | 60 | almost doubled | – | –
CC[C@H](C)[C@H](NC(=O)[C@H](Cc1ccc(O)cc1)NC(=O)[C@@H](NC(=O)[C@H](CC(C)C)NC(=O)CNC(=O)[C@@H]1CCCN1C(=O)[C@H](C)NC(=O)[C@H](CC(N)=O)NC(=O)[C@H](Cc1c[nH]cn1)NC(=O)[C@@H](N)Cc1ccc(O)cc1)C(C)C)C(=O)N[C@@H](CC(C)C)C(=O)O [P6] (H-YHNAPGLVYIL-OH; N-terminus and C-terminus assumed) | – | – | 60 | – | did not affect HepG2 cells viability | cytoprotective
